Data on 16 compounds can be found in ChEMBL document CHEMBL1909046, “DrugMatrix in vitro pharmacology data”.

For data set [1], the target named is Vasopressin V1a receptor (Homo sapiens, UniProt P37288). It is filed as cell membranes, Membrane. The conditions noted are these: hek293. Further: in other assays of this panel Not Active means under 50% inhibition at 10 µM.
The nature of data set [2]: DRUGMATRIX: GABAA, Muscimol, Central radioligand binding (ligand: [3H] Muscimol). It is filed as cell membranes, Rattus norvegicus, Wistar, Brain, Membrane. The note with it: Not Active = under 50% inhibition at 10 µM.
For data set [3], the target named is T1, Muscarinic acetylcholine receptor M4 (Homo sapiens, UniProt P08173). Further: in other assays of this panel Not Active means under 50% inhibition at 10 µM.
T1 sequence (P08173 whole entry): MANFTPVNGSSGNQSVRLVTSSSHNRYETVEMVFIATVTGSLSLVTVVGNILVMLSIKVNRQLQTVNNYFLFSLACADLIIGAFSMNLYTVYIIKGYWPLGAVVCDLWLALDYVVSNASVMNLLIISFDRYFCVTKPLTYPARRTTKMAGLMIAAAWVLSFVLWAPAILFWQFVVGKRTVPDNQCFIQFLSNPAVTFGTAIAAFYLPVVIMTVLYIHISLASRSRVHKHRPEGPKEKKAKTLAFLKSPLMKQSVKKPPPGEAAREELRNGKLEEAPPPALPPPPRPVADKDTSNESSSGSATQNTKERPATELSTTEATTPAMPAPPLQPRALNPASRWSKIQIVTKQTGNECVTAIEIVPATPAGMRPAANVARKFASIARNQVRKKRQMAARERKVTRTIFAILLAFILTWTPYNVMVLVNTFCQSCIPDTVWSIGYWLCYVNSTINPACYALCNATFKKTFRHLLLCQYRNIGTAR
It is filed as cell membranes, CHO-K1, Membrane.

In data set [4] the target is T2, Nitric oxide synthase, inducible (Mus musculus, UniProt P29477).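 Further: inhibition of iNOS enzyme activity measured with L-arginine as substrate; in other assays of this panel Not Active means under 50% inhibition at 10 µM.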
T2 sequence (P29477 whole entry): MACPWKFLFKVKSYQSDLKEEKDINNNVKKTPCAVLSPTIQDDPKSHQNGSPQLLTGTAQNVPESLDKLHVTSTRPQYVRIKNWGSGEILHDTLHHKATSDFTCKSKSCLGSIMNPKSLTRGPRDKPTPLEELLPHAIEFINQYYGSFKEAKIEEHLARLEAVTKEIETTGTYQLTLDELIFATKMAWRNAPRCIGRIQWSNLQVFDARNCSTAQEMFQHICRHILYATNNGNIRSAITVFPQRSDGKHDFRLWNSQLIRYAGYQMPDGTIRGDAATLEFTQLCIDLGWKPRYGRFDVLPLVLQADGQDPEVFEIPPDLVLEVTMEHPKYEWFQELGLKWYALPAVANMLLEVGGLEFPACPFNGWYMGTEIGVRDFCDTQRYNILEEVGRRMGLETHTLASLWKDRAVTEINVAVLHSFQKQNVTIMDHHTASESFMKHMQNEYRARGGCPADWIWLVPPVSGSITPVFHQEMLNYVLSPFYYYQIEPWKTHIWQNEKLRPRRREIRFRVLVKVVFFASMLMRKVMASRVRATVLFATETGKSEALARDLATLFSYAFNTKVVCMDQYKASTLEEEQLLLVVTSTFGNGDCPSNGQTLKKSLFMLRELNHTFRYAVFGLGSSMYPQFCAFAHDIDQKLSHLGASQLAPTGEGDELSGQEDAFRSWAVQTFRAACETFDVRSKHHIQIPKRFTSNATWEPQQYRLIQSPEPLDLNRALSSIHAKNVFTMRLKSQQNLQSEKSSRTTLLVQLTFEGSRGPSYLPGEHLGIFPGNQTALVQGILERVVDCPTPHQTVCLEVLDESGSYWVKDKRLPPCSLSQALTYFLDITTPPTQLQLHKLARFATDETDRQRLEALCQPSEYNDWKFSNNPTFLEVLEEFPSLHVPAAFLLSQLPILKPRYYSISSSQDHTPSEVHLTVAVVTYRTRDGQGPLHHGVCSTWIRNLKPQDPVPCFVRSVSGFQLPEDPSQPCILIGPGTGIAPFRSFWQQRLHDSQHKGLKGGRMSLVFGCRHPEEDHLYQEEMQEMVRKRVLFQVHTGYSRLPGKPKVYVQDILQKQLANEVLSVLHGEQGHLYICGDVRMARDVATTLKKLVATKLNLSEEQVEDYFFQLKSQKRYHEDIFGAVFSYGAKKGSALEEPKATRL
The arrangement: species or system Escherichia coli.

For data set [5], the target named is T3, Adenosine receptor A3 (Homo sapiens, UniProt P0DMS8).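 Further: radioligand binding assay with AB-MECA serving as the labeled ligand; in other assays of this panel Not Active means under 50% inhibition at 10 µM.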
T3 sequence (P0DMS8 whole entry): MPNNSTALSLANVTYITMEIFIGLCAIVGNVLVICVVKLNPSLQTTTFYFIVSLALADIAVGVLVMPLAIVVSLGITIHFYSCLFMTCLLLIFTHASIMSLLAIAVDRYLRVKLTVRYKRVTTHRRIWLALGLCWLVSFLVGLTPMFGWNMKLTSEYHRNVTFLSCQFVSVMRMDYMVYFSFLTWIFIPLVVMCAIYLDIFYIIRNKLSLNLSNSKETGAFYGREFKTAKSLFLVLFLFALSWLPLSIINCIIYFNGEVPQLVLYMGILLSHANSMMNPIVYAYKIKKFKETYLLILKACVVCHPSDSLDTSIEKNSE
The data set is classed as cell membranes, CHO-K1, Membrane.

The target of data set [6] is T4, Cytochrome P450 1A2 (Homo sapiens, UniProt P05177). Further: in other assays of this panel Not Active means under 50% inhibition at 10 µM.
T4 sequence (P05177 whole entry): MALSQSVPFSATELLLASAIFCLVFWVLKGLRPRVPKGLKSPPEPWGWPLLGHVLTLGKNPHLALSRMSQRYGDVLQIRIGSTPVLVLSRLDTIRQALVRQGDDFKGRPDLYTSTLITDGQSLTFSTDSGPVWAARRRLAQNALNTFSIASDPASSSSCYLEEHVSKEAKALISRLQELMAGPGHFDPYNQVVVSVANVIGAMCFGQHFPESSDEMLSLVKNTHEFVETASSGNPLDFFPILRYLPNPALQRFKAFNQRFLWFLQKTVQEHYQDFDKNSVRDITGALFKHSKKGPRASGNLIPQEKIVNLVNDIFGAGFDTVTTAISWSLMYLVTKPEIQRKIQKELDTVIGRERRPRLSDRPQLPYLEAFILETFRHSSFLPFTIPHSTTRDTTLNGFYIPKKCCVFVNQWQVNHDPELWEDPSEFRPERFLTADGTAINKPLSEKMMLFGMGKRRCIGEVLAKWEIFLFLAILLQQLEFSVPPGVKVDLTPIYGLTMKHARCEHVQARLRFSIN
The note with it: bti-tn-5b1-4.

Data set [7] deals with Estrogen receptor beta (Homo sapiens, UniProt Q92731). The conditions noted are these: sf9.

Molecules are shown by their SMILES.

Sequence of Vasopressin V1a receptor (P37288 whole entry): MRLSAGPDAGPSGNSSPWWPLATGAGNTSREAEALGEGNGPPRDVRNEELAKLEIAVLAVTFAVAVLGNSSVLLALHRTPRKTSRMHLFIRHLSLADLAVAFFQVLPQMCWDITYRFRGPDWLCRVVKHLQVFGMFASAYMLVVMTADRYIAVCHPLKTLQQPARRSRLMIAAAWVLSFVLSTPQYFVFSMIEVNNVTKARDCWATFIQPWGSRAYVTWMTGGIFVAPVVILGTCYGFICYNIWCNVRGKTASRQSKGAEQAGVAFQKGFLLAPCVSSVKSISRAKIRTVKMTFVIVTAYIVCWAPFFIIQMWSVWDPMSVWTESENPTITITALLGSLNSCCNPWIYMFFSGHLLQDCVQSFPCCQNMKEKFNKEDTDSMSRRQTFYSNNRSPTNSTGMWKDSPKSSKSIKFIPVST
Sequence of Estrogen receptor beta (Q92731 whole entry): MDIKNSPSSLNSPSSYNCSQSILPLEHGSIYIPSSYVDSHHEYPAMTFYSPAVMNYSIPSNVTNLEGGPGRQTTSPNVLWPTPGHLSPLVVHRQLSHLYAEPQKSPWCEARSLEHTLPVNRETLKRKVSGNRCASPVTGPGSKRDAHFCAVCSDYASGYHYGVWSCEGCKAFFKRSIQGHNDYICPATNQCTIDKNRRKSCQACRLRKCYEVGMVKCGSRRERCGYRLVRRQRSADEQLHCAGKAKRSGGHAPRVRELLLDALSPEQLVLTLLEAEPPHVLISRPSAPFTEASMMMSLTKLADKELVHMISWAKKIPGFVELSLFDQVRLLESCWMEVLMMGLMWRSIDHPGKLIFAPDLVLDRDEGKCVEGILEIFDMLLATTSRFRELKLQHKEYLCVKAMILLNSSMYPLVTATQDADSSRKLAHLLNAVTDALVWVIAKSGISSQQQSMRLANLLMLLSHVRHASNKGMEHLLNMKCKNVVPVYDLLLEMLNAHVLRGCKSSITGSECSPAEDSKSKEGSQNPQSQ

For `CCCc1nn(C)c2c(=O)[nH]c(-c3cc(S(=O)(=O)N4CCN(C)CC4)ccc3OCC)nc12`, the IC50 result in data set [1], in data set [2], in data set [3] (cho-k1), in data set [4], in data set [5] (cho-k1) and in data set [6] was “Not Active” throughout. The Ki result in data set [2] and in data set [6] was “Not Active” in each case.

For the compound `CCOC(N)=O`, the IC50 result in data set [1], in data set [2], in data set [3] (cho-k1), in data set [4], in data set [5] (cho-k1) and in data set [6] was “Not Active” each time. The Ki result in data set [2] and in data set [6] was “Not Active” throughout.

For `O=c1[nH]c2ccccc2n1CCCN1CCC(n2c(=O)[nH]c3cc(Cl)ccc32)CC1` [DOMPERIDONE], the IC50 entry in data set [1], in data set [3] (cho-k1), in data set [4], in data set [5] (cho-k1) and in data set [7] was “Not Active” each time.

On to `OCCN1CCN(CCCN2c3ccccc3Sc3ccc(C(F)(F)F)cc32)CC1` [FLUPHENAZINE], for which the IC50 entry was “Not Active” in data set [1]; 3.47 µM in data set [3] (read-out: IC50); “Not Active” in data set [4]; 11.9 µM in data set [5] (read-out: IC50); “Not Active” in data set [7]. Further, the Ki in data set [3] (read-out: Ki) is 0.484 µM; in data set [5] (read-out: Ki), 6.75 µM.

Turning to `CCN(CC)CC#CCOC(=O)C(O)(c1ccccc1)C1CCCCC1` (stereo not given) [OXYBUTYNIN], the IC50 entry in data set [1], in data set [4], in data set [5] (cho-k1), in data set [6] and in data set [7] was “Not Active” throughout. Further, in data set [6], the Ki result is “Not Active”.

Take `O=P(O)(O)C(O)(Cc1cccnc1)P(=O)(O)O` [RISEDRONIC ACID]: the IC50 result in data set [1], in data set [2], in data set [3] (cho-k1), in data set [4], in data set [5] (cho-k1) and in data set [6] was “Not Active” in each case. The Ki entry in data set [2] and in data set [6] was “Not Active” throughout.

Consider `C=C(C)[C@H]1Cc2c(ccc3c2O[C@@H]2COc4cc(OC)c(OC)cc4[C@@H]2C3=O)O1` [ROTENONE], for which the IC50 result in data set [1], in data set [2], in data set [3] (cho-k1), in data set [4], in data set [5] (cho-k1) and in data set [6] was “Not Active” in each case. The Ki entry in data set [2] and in data set [6] was “Not Active” in each case.

With `CN[C@@H]1[C@H](O)[C@H](NC)[C@H]2O[C@@]3(O)C(=O)C[C@@H](C)O[C@H]3O[C@@H]2[C@H]1O` [SPECTINOMYCIN], the IC50 entry in data set [1], in data set [2], in data set [3] (cho-k1), in data set [4] and in data set [5] (cho-k1) was “Not Active” each time. Further, in data set [2], the Ki entry is “Not Active”.

Turning to `Nc1ccc(S(=O)(=O)Nc2nccs2)cc1` [SULFATHIAZOLE], the IC50 result in data set [1], in data set [2], in data set [3] (cho-k1), in data set [4], in data set [5] (cho-k1) and in data set [6] was “Not Active” each time. Also, the Ki result in data set [2] and in data set [6] was “Not Active” throughout.

In the case of `CC(C)(C)NC[C@H](O)COc1nsnc1N1CCOCC1` [TIMOLOL], the IC50 entry in data set [1], in data set [2], in data set [3] (cho-k1), in data set [4], in data set [5] (cho-k1) and in data set [6] was “Not Active” in each case. In addition, the Ki entry in data set [2] and in data set [6] was “Not Active” in each case.

As for `CCS(=O)(=O)CCn1c([N+](=O)[O-])cnc1C` [TINIDAZOLE], the IC50 entry in data set [1], in data set [2], in data set [3] (cho-k1), in data set [4] and in data set [5] (cho-k1) was “Not Active” each time. Besides, the Ki result in data set [2] is reported as “Not Active”.

As to `NC[C@H]1O[C@H](O[C@H]2[C@H](O)[C@@H](O[C@H]3O[C@H](CO)[C@@H](O)[C@H](N)[C@H]3O)[C@H](N)C[C@@H]2N)[C@H](N)C[C@@H]1O` [TOBRAMYCIN], the IC50 result in data set [1], in data set [2], in data set [3] (cho-k1), in data set [4], in data set [5] (cho-k1) and in data set [7] was “Not Active” each time. Moreover, the Ki result in data set [2] is on record as “Not Active”.

As for `O=c1n(CCCN2CCN(c3cccc(Cl)c3)CC2)nc2ccccn12` [TRAZODONE], the IC50 entry in data set [1], in data set [3] (cho-k1), in data set [4], in data set [5] (cho-k1) and in data set [6] was “Not Active” in each case. Further, the Ki entry in data set [6] is reported as “Not Active”.

`O=C(O)C(Cl)(Cl)Cl` [TRICHLOROACETIC ACID]: the IC50 result in data set [1], in data set [2], in data set [3] (cho-k1), in data set [4], in data set [5] (cho-k1) and in data set [6] was “Not Active” in each case. In addition, the Ki result in data set [2] and in data set [6] was “Not Active” throughout.

On to `CC(=O)O[C@H]1C[C@@H]2CC[C@@H]3[C@H](CC[C@@]4(C)[C@H]3C[C@H]([N+]3(C)CCCCC3)[C@@H]4OC(C)=O)[C@@]2(C)C[C@@H]1N1CCCCC1.[Br-]` [VECURONIUM BROMIDE], for which the IC50 result in data set [1], in data set [2], in data set [3] (cho-k1), in data set [4], in data set [5] (cho-k1) and in data set [6] was “Not Active” in each case. Also, the Ki result in data set [2] and in data set [6] was “Not Active” in each case.

For the compound `Cc1cn([C@H]2C[C@H](N=[N+]=[N-])[C@@H](CO)O2)c(=O)[nH]c1=O` [ZIDOVUDINE], the IC50 result in data set [1], in data set [2], in data set [3] (cho-k1), in data set [4], in data set [5] (cho-k1) and in data set [6] was “Not Active” each time. For the same compound, the Ki entry in data set [2] and in data set [6] was “Not Active” in each case.

Usually IC50 stands for the concentration needed to halve the response being measured. What is called Ki is a measure of affinity in units of concentration, obtained from inhibition or displacement.
